Measurements as given in patent publication US7834005B2, “Pyrrolobenzodiazepine derivatives, compositions comprising the same and methods related thereto” (The United States of America as represented by the …, priority 2003, dated 2010).
Read-outs that look alike come from different tables or passages of the source.

Tests used:
U251 = experiment: 60-cell-line screen: U251 (Central Nervous System); assay type: cell-based; details: read-out: LC50 (the source's name)
ACHN = experiment: 60-cell-line screen: ACHN (Renal); assay type: cell-based
COLO 205 = experiment: 60-cell-line screen: COLO 205 (Colon); assay type: cell-based
MDA-MB-231/ATCC = experiment: 60-cell-line screen: MDA-MB-231/ATCC (Breast); assay type: cell-based
Excerpt: (§1) The concentration effects of the compound for various cancer cell lines are summarized in Tables 2-10, wherein GI50 is the drug concentration required to inhibit the growth of 50% of the cells, TGI is the drug concentration required for total growth inhibition, and LC50 is the drug concentration required to kill 50% of the cells.

SW-620 = experiment: 60-cell-line screen: SW-620 (Colon); assay type: cell-based; details: read-out: LC50 (the source's name)
Excerpt: as §1

HS 578T = experiment: 60-cell-line screen: HS 578T (Breast); assay type: cell-based; details: read-out: LC50 (the source's name)
Excerpt: as §1

SNB-19 = experiment: 60-cell-line screen: SNB-19 (Central Nervous System); assay type: cell-based; details: read-out: LC50 (the source's name)
IGROV1 = experiment: 60-cell-line screen: IGROV1 (Ovarian); assay type: cell-based
HOP-62 = experiment: 60-cell-line screen: HOP-62 (Non-Small Cell Lung); assay type: cell-based; details: read-out: LC50 (the source's name)
UACC-257 = experiment: 60-cell-line screen: UACC-257 (Melanoma); assay type: cell-based
NCI-H522 = experiment: 60-cell-line screen: NCI-H522 (Non-Small Cell Lung); assay type: cell-based; details: read-out: LC50 (the source's name)
KM12 = experiment: 60-cell-line screen: KM12 (Colon); assay type: cell-based; details: read-out: LC50 (the source's name)
Excerpt: as §1

SK-OV-3 = experiment: 60-cell-line screen: SK-OV-3 (Ovarian); assay type: cell-based
Excerpt: as §1

UO-31 = experiment: 60-cell-line screen: UO-31 (Renal); assay type: cell-based
SF-295 = experiment: 60-cell-line screen: SF-295 (Central Nervous System); assay type: cell-based; details: read-out: LC50 (the source's name)
Excerpt: as §1

OVCAR-3 = experiment: 60-cell-line screen: OVCAR-3 (Ovarian); assay type: cell-based
Excerpt: as §1

NCI-H460 = experiment: 60-cell-line screen: NCI-H460 (Non-Small Cell Lung); assay type: cell-based; details: read-out: LC50 (the source's name)
A549/ATCC = experiment: 60-cell-line screen: A549/ATCC (Non-Small Cell Lung); assay type: cell-based; details: read-out: LC50 (the source's name)
Excerpt: as §1

SN12C = experiment: 60-cell-line screen: SN12C (Renal); assay type: cell-based
EKVX = experiment: 60-cell-line screen: EKVX (Non-Small Cell Lung); assay type: cell-based; details: read-out: LC50 (the source's name)
HCT-15 = experiment: 60-cell-line screen: HCT-15 (Colon); assay type: cell-based; details: read-out: LC50 (the source's name)
MOLT-4 = experiment: 60-cell-line screen: MOLT-4 (Leukemia); assay type: cell-based
SNB-75 = experiment: 60-cell-line screen: SNB-75 (Central Nervous System); assay type: cell-based
CAKI-1 = experiment: 60-cell-line screen: CAKI-1 (Renal); assay type: cell-based
NCI-H23 = experiment: 60-cell-line screen: NCI-H23 (Non-Small Cell Lung); assay type: cell-based
MALME-3M = experiment: 60-cell-line screen: MALME-3M (Melanoma); assay type: cell-based
BT-549 = experiment: 60-cell-line screen: BT-549 (Breast); assay type: cell-based; details: read-out: LC50 (the source's name)
Excerpt: as §1

OVCAR-8 = experiment: 60-cell-line screen: OVCAR-8 (Ovarian); assay type: cell-based
Excerpt: as §1

SK-MEL-2 = experiment: 60-cell-line screen: SK-MEL-2 (Melanoma); assay type: cell-based
T-47D = experiment: 60-cell-line screen: T-47D (Breast); assay type: cell-based; details: read-out: LC50 (the source's name)
M14 = experiment: 60-cell-line screen: M14 (Melanoma); assay type: cell-based; details: read-out: LC50 (the source's name)
TK-10 = experiment: 60-cell-line screen: TK-10 (Renal); assay type: cell-based
CCRF-CEM = experiment: 60-cell-line screen: CCRF-CEM (Leukemia); assay type: cell-based
MDA-N = experiment: 60-cell-line screen: MDA-N (Breast); assay type: cell-based
NCI-H226 = experiment: 60-cell-line screen: NCI-H226 (Non-Small Cell Lung); assay type: cell-based; details: read-out: LC50 (the source's name)
PC-3 = experiment: 60-cell-line screen: PC-3 (Prostate); assay type: cell-based
SK-MEL-28 = experiment: 60-cell-line screen: SK-MEL-28 (Melanoma); assay type: cell-based; details: read-out: LC50 (the source's name)
UACC-62 = experiment: 60-cell-line screen: UACC-62 (Melanoma); assay type: cell-based
NCI/ADR-RES = experiment: 60-cell-line screen: NCI/ADR-RES (Breast); assay type: cell-based
Excerpt: as §1

NCI-H322M = experiment: 60-cell-line screen: NCI-H322M (Non-Small Cell Lung); assay type: cell-based; details: read-out: LC50 (the source's name)
HOP-92 = experiment: 60-cell-line screen: HOP-92 (Non-Small Cell Lung); assay type: cell-based; details: read-out: LC50 (the source's name)
OVCAR-4 = experiment: 60-cell-line screen: OVCAR-4 (Ovarian); assay type: cell-based
Excerpt: as §1

SF-539 = experiment: 60-cell-line screen: SF-539 (Central Nervous System); assay type: cell-based; details: read-out: LC50 (the source's name)
Excerpt: as §1

786-0 = experiment: 60-cell-line screen: 786-0 (Renal); assay type: cell-based
DU-145 = experiment: 60-cell-line screen: DU-145 (Prostate); assay type: cell-based
OVCAR-5 = experiment: 60-cell-line screen: OVCAR-5 (Ovarian); assay type: cell-based
Excerpt: as §1

RPMI-8226 = experiment: 60-cell-line screen: RPMI-8226 (Leukemia); assay type: cell-based
MDA-MB-435 = experiment: 60-cell-line screen: MDA-MB-435 (Breast); assay type: cell-based
SF-268 = experiment: 60-cell-line screen: SF-268 (Central Nervous System); assay type: cell-based; details: read-out: LC50 (the source's name)
Excerpt: as §1

[1] = read-out: LC50 (the source's name)

C=C1C[C@H]2C(O)Nc3cc(OCCCOc4cc5c(cc4OC)C(=O)N4CC(=C)C[C@H]4C(O)N5)c(OC)cc3C(=O)N2C1 (stereo partly shown) [Compound 16]
CC50 (U251): 1000 nM
LC50 (ACHN): −6 Log10[C] (M)
CC50 (ACHN; [1]): 1000 nM
LC50 (COLO 205): −6.6 Log10[C] (M)
CC50 (COLO 205; [1]): 251 nM
LC50 (MDA-MB-231/ATCC): 1000 nM
CC50 (SW-620): 1000 nM
CC50 (HS 578T): 1000 nM
CC50 (SNB-19): 1000 nM
LC50 (IGROV1): −6 Log10[C] (M)
LC50 (IGROV1; read-out: LC50): 1000 nM
CC50 (HOP-62): 1000 nM
LC50 (UACC-257): 1000 nM
CC50 (NCI-H522): 1000 nM
CC50 (KM12): 1000 nM
LC50 (SK-OV-3): −6 Log10[C] (M)
LC50 (SK-OV-3; read-out: LC50): 1000 nM
LC50 (UO-31): −6 Log10[C] (M)
CC50 (UO-31; [1]): 1000 nM
CC50 (SF-295): 1000 nM
LC50 (OVCAR-3): −6 Log10[C] (M)
CC50 (OVCAR-3; [1]): 1000 nM
CC50 (NCI-H460): 1000 nM
CC50 (A549/ATCC): 1000 nM
LC50 (SN12C): −6 Log10[C] (M)
CC50 (SN12C; [1]): 1000 nM
CC50 (EKVX): 1000 nM
CC50 (HCT-15): 1000 nM
LC50 (MOLT-4): −7.15 Log10[C] (M)
CC50 (MOLT-4; [1]): 70.8 nM
LC50 (SNB-75): −6.33 Log10[C] (M)
CC50 (SNB-75; [1]): 468 nM
LC50 (CAKI-1): −6 Log10[C] (M)
CC50 (CAKI-1; [1]): 1000 nM
LC50 (NCI-H23): −7.17 Log10[C] (M)
CC50 (NCI-H23; [1]): 67.6 nM
LC50 (MALME-3M): −7.15 Log10[C] (M)
CC50 (MALME-3M; [1]): 70.8 nM
LC50 (HL-60(TB); Leukemia): −7.55 Log10[C] (M)
CC50 (HL-60(TB); read-out: LC50, Leukemia): 28.2 nM
CC50 (BT-549): 1000 nM
LC50 (OVCAR-8): −6 Log10[C] (M)
CC50 (OVCAR-8; [1]): 1000 nM
LC50 (SK-MEL-2): −7.14 Log10[C] (M)
CC50 (SK-MEL-2; [1]): 72.4 nM
CC50 (T-47D): 1000 nM
CC50 (M14): 1000 nM
LC50 (TK-10): −6 Log10[C] (M)
LC50 (TK-10; read-out: LC50): 1000 nM
LC50 (CCRF-CEM): −6 Log10[C] (M)
CC50 (CCRF-CEM; [1]): 1000 nM
LC50 (MDA-N): −7.24 Log10[C] (M)
CC50 (MDA-N; [1]): 57.5 nM
CC50 (NCI-H226): 1000 nM
LC50 (PC-3): −6 Log10[C] (M)
CC50 (PC-3; [1]): 1000 nM
CC50 (SK-MEL-28): 1000 nM
LC50 (UACC-62): −8.15 Log10[C] (M)
CC50 (UACC-62; [1]): 7.1 nM
LC50 (NCI/ADR-RES): 1000 nM
CC50 (NCI-H322M): 1000 nM
CC50 (HOP-92): 1000 nM
LC50 (OVCAR-4): −6 Log10[C] (M)
CC50 (OVCAR-4; [1]): 1000 nM
CC50 (SF-539): 1000 nM
LC50 (786-0): −6 Log10[C] (M)
CC50 (786-0; [1]): 1000 nM
LC50 (DU-145): −6 Log10[C] (M)
CC50 (DU-145; [1]): 1000 nM
LC50 (OVCAR-5): −6 Log10[C] (M)
CC50 (OVCAR-5; [1]): 1000 nM
LC50 (RPMI-8226): −7.08 Log10[C] (M)
CC50 (RPMI-8226; [1]): 83.2 nM
LC50 (MDA-MB-435): −7.07 Log10[C] (M)
CC50 (MDA-MB-435; [1]): 85.1 nM
CC50 (SF-268): 1000 nM
